Results as given in paper PMC11232401, “Characterization of antimalarial activity of artemisinin-based hybrid drugs” (Antimicrobial Agents and Chemotherapy, 2024).
Like-named read-outs stand apart in the source and are kept apart here.

Key:
[1] = test system: ring stages of NF54 strain of P. falciparum; test: Exposure time dependence in drug activity (pLDH); type: cell-based; settings: Plasmodium falciparum
Experimental: Each well of 96-well plates was filled with 100 µL drug and 100 µL culture containing ring-stage P. falciparum (NF54 strain) parasites, which were mixed to obtain a final parasitemia of 1.0% to 1.5% and 1.0% hematocrit. Plates were incubated at 37°C in a standard gas mixture. After 3 h and 6 h, plates were centrifuged, cell pellets were washed as described above then returned to the incubator for an additional 69 h and 66 h, respectively. In parallel, the same experiment was left without the washing step, enabling continuous drug exposure throughout. Plates were processed using the pLDH method, and IC50 values were calculated as described above. Three independent experiments were performed using two technical replicates.
Figure S2: Exposure time dependence of antiparasitic activity against ring stages of CQ-sensitive strain NF54 of P. falciparum. Data associated to Figure 2B in the main text of the manuscript. Footnotes for table: ^[a] Synchronized ring-stage parasites were incubated in the presence of compounds at indicated times, drugs were removed by washing, and plates were incubated until 72 h.^[b] Parasites were incubated in the presence of compounds for 72 h. ^[a,b^] Experiments were performed in parallel (paired). Parasite viability was determined by parasite lactate dehydrogenase (pLDH) assay. Data are from three experiments performed in duplicate.^ [c] […] MFQ = mefloquine. DHA = dihydroartemisinin; SEM = standard error of the mean; N.S. = not statistically significant.

[2] = test system: 3D7 strain of P. falciparum; test: Host cell-mediated drug degradation: antiplasmodial activity of uRBC supernatants; type: cell-based, Plasmodium falciparum; settings: for IC50: Plasmodium falciparum, 3D7, 0.16 h, 500 nM drug, 3D7, SYBR Green I, median ± SEM (AQ mean, 95% CI), read-out: IC50 of supernatants harvested at 0.16 h; for Fold changes (24 h/0.16 h): 3D7, ratio of IC50 at 24 h to IC50 at 0.16 h
Experimental: Each well of 96-well plates was filled with 125 µL drug (1000 nM) and 125 µL uninfected red blood cells (uRBC), which were mixed to obtain a final drug concentration of 500 nM and 2.5% or 1.0% hematocrit. The plates were incubated at 37°C in the standard gas mixture. After each time point (10 min, 6 h, and 24 h), supernatants were carefully harvested and stored at −80°C until use. […] Next, supernatants were diluted in a complete medium in six different dilutions and were aliquoted in new plates. The antimalarial activity of these supernatants and freshly dissolved drugs was determined in an asynchronous parasite culture of P. falciparum (3D7, D10, and W2 strains) for 72 h using the same method described above, and parasite viability was assessed by the pLDH ([38]) and SYBR Green I ([41]) methods. Only the experiments where the IC50 values of the supernatants harvested at 10 min were the same as those of the respective fresh drugs were considered for determining equivalent drug concentration. […] Decay in drug concentration was estimated by using the normalized slope values calculated from linear regression fits using the slope values of a standard curve as reference. Three independent experiments were performed using two replicates.
Figure S5: Data associated to Figure 3 in the main text of the manuscript. Panel A: Representative response-concentration curves of the antiplasmodial activity of supernatant-derived uRBC (2.5% hematocrit) harvested at indicated times (0.16, 6, and 24 h). Drug activity on parasite viability was determined 72 h after parasite incubation (3D7 strain, asynchronous). Values were subtracted from control (without treatment), transformed, and normalized to calculate nonlinear fit. Parasite viability was determined by SYBR Green I. Values are mean and error bars are the standard deviation of a single experiment, each concentration in duplicate. […] Footnotes: ^[a] Parasite viability was determined by SYBR Green I. ^[b^] Parasite viability was determined by pLDH readout. Values are median ± SEM of three independent experiments, each concentration in duplicate. ^[c^] […] These values are expressed as mean and 95% confidence interval (CI) of one experiment, each concentration in duplicate. […] Unpaired two-tailed t-test at 95% CI: *p <0.05; **p <0.01.

[3] = test system: Asynchronous NF54 strain of P. falciparum; test: Speed of drug activity (pLDH); type: cell-based, Plasmodium falciparum; settings: for IC50: Plasmodium falciparum, NF54, asynchronous, mean (95% CI); for Conclusion (speed of antiparasitic activity): from IC50 at 24, 48, 72 h
Experimental: Each well of 96-well plates was filled with 100 µL drug and 100 µL culture containing asynchronous P. falciparum (NF54 strain) parasites, which were mixed to obtain a final parasitemia of 1.0% to 1.5% and 1.0% hematocrit. The plates were incubated for 24, 48, and 72 h at 37°C with a standard gas mixture. […] Parasite viability was measured using the pLDH method, and IC50 values were calculated as described above. Three independent experiments were performed using two technical replicates.
Figure S3: Speed of antiparasitic activity of hybrids (1) and (2) against CQ-sensitive NF54 strain of P. falciparum. Panel A: Representative response-concentration curves. Panel B: A table summarizing the results. Footnotes for table: ^[a] Parasite viability was accessed at each indicated time (24, 48, or 72 h) after addition of drugs. Values are the mean and 95% confidence interval of one experiment using each concentration of compounds in duplicate. Parasite viability was determined by parasite lactate dehydrogenase (pLDH) assay. DHA = dihydroartemisinin; ATO = atovaquone.

[4] = NF54, 6 h drug pulse, wash, incubated until 72 h, median ± SEM, read-out: IC50, 6 h + 66 h
[5] = NF54, 72 h continuous drug, median ± SEM, read-out: IC50, 72 h
[6] = NF54, read-out: IC50, 3 h + 69 h, 3 h drug pulse, wash, incubated until 72 h, median ± SEM
[7] = viability at 24 h, read-out: IC50, 24 h
[8] = viability at 48 h, read-out: IC50, 48 h
[9] = viability at 72 h, read-out: IC50, 72 h

Row | SMILES | IC50 [1, 4] | IC50 [1, 5] | IC50 [1, 6] | IC50 ([2]; uRBC 1.0% hematocrit) | IC50 ([2]; uRBC 2.5% hematocrit) | loss in supernatant activity, supernatant harvested at 6 h ([2]; high hematocrit (2.5%)) | loss in antiplasmodial activity of supernatants harvested at 6 h ([2]; low hematocrit (1%)) | IC50 [3, 7] | IC50 [3, 8] | IC50 [3, 9] | Conclusion (speed of antiparasitic activity) [3] | Fold changes (24 h/0.16 h) ([2]; uRBC 1.0% hematocrit) | Fold changes (24 h/0.16 h) ([2]; uRBC 2.5% hematocrit) | Fold changes (24 h/0.16 h) ([2]; uRBC 2.5% hematocrit, listed as LH70 (1)) | Fold changes (24 h/0.16 h) ([2]; uRBC 2.5% hematocrit, listed as 163A (2))
1 | C[C@H]1[C@@H](O)O[C@@H]2O[C@@]3(C)CC[C@H]4[C@H](C)CC[C@@H]1[C@@]24OO3 [DHA, dihydroartemisinin, reference compound] | 5 ± 0.5 nM | 1.9 ± 0.2 nM | 100 ± 25 nM | 4.5 ± 1.1 nM | 6.7 ± 2.5 nM | fourfold | 2 fold | 8.3 nM | 2.9 nM | 2.7 nM | Fast-acting | – | – | – | –
2 | COCCOCCOCCOCCn1c(-c2ccc(-n3cc(-c4ccc(OC5OC6OC7(C)CCC8C(C)CCC(C5C)C68OO7)cc4)nn3)cc2)nc2ccccc21 (stereo not shown) [Hybrid 1] | 1.5 ± 0.3 nM | 1.5 ± 0.1 nM | 220 ± 80 nM | – | 1.3 ± 0.44 nM | – | – | 2.4 nM | 3 nM | 2 nM | Fast-acting | 1.0 ± 0.23 | 3 | 3.6 ± 0.8 | –
3 | CC1CCC2C(C)C(OC(=O)CCC(=O)OCCNc3ccnc4cc(Cl)ccc34)OC3OC4(C)CCC1C32OO4 (stereo not shown) [Hybrid 2] | 9 ± 1.5 nM | 3.8 ± 0.4 nM | 75 ± 18 nM | 3.4 ± 0.33 nM | 2.8 ± 0.51 nM | – | – | 9.4 nM | 4.3 nM | 5.6 nM | Fast-acting | 1.1 ± 0.31 | 10 | – | 10.7 ± 4.1
